Series [1] can be described thus: Solubility of reduced coenzyme Q10 crystals in fats and oils at 30° C. Type of series: physicochemical. On the procedure:
The solubility of the crystals obtained in Production Example 1 in medium-chain fatty acid triglyceride (MCT, C8:C10=6:4), soybean oil, safflower oil, or rice oil at 30° C. is shown in Table 8.

Series [2] is described as follows: Storage stability of reduced coenzyme Q10 compositions in the air at 40° C., light-shielded, 3 days (HPLC weight ratio). Type of series: physicochemical. The note with it: vitamin E content high (4.11% by weight based on the system excluding coenzyme Q10).
Experimental: The purity and reduced coenzyme Q10/oxidized coenzyme Q10 ratio (weight ratio) were determined by the following HPLC analysis.
C18 (product of Waters), 250 mm (in length), 4.6 mm (in inside diameter): mobile phase; C2H5OH/CH3OH=4/3 (v/v): detection wavelength; 210 nm: flow rate; 1 ml/min: retention time of reduced coenzyme Q10; 9.1 min: retention time of oxidized coenzyme Q10; 13.3 min.
The crystals obtained in Production Example 1 were added to soybean oil, glycerol, and a mixture thereof, respectively, to a concentration of 6% by weight, and the resulting mixtures were stored in the air at 40° C. under a light-shielded condition for 3 days, and the reduced coenzyme Q10/oxidized coenzyme Q10 weight ratios in the solutions were determined.
The crystals obtained in Production Example 1 were added to various fats and oils specified in Table 2, respectively, to a concentration of 6% by weight, and the resulting mixtures were stored in the air at 40° C. under a light-shielded condition for 3 days, and the reduced coenzyme Q10/oxidized coenzyme Q10 weight ratios in the solutions were determined.
The crystals obtained in Production Example 1 were added to olive oil to a concentration of 6% by weight, and the resulting mixture was stored in the air at 40° C. under a light-shielded condition for 3 days. […]

With `COc1c(O)c(C)c(C/C=C(\C)CC/C=C(\C)CC/C=C(\C)CC/C=C(\C)CC/C=C(\C)CC/C=C(\C)CC/C=C(\C)CC/C=C(\C)CC/C=C(\C)CCC=C(C)C)c(O)c1OC` [Compar. Ex. 1, reduced coenzyme Q10], the Solubility in series [1] (in MCT (C8:C10=6:4) at 30° C.) came out at 22.4 wt %; in series [1] (in rice oil at 30° C.), 10.2 wt %; in series [1] (in safflower oil at 30° C.), 11.1 wt %; in series [1] (in soybean oil at 30° C.), 10.9 wt %.

For the compound vitamin E, in series [2], the “effect on stabilization of reduced coenzyme Q10, in words” value was “inhibits the stabilization of reduced coenzyme Q10”.

The values above are taken from patent US8562975B2, “Method for stabilizing reduced coenzyme Q10 and composition therefor” (Kaneka Corporation, priority 2002, dated 2013).
